Assay results: ChEMBL document CHEMBL3098085, “Novel 2-chloro-4-anilino-quinazoline derivatives as EGFR and VEGFR-2 dual inhibitors” (Eur J Med Chem, 2014)

How the values were obtained:
[1] = target: Vascular endothelial growth factor receptor 2 (Homo sapiens, UniProt P35968); experiment: Inhibition of VEGFR2 (unknown origin) assessed as inhibition of 33[Pi] incorporation after 60 mins by scintillation counting
[2] = target: Epidermal growth factor receptor (Homo sapiens, UniProt P00533); experiment: Inhibition of wild type EGFR (unknown origin) assessed as inhibition of 33[Pi] incorporation after 60 mins by scintillation counting
Epidermal growth factor receptor, sequence (P00533 whole entry): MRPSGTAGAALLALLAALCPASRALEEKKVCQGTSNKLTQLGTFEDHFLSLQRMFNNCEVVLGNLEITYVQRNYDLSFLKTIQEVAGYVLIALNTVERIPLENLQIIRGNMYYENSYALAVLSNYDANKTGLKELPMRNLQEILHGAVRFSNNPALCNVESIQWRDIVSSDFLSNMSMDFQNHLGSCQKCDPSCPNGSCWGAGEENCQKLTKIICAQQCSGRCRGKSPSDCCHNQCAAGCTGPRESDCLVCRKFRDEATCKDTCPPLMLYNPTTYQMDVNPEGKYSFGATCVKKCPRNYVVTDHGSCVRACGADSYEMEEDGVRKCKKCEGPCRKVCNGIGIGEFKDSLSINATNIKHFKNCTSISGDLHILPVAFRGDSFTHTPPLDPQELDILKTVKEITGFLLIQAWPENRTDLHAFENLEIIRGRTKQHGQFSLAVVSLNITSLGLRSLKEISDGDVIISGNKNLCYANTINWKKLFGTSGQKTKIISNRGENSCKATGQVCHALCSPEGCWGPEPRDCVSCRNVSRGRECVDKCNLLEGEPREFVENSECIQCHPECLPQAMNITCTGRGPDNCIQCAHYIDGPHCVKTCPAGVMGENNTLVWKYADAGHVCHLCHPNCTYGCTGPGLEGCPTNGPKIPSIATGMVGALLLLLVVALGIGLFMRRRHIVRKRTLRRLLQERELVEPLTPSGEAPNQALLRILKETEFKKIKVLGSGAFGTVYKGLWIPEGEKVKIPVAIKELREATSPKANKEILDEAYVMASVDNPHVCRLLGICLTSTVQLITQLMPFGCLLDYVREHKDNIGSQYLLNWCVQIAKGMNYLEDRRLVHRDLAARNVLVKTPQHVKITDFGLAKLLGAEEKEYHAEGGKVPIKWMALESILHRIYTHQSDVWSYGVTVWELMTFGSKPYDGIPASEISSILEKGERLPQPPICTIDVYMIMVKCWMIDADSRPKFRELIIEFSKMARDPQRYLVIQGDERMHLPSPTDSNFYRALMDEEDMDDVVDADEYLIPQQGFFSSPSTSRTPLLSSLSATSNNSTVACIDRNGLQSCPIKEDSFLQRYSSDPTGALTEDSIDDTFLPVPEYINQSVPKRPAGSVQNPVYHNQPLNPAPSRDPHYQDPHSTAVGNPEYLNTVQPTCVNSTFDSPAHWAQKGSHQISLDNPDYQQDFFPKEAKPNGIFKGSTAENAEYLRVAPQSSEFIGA

Vascular endothelial growth factor receptor 2, sequence (P35968 whole entry): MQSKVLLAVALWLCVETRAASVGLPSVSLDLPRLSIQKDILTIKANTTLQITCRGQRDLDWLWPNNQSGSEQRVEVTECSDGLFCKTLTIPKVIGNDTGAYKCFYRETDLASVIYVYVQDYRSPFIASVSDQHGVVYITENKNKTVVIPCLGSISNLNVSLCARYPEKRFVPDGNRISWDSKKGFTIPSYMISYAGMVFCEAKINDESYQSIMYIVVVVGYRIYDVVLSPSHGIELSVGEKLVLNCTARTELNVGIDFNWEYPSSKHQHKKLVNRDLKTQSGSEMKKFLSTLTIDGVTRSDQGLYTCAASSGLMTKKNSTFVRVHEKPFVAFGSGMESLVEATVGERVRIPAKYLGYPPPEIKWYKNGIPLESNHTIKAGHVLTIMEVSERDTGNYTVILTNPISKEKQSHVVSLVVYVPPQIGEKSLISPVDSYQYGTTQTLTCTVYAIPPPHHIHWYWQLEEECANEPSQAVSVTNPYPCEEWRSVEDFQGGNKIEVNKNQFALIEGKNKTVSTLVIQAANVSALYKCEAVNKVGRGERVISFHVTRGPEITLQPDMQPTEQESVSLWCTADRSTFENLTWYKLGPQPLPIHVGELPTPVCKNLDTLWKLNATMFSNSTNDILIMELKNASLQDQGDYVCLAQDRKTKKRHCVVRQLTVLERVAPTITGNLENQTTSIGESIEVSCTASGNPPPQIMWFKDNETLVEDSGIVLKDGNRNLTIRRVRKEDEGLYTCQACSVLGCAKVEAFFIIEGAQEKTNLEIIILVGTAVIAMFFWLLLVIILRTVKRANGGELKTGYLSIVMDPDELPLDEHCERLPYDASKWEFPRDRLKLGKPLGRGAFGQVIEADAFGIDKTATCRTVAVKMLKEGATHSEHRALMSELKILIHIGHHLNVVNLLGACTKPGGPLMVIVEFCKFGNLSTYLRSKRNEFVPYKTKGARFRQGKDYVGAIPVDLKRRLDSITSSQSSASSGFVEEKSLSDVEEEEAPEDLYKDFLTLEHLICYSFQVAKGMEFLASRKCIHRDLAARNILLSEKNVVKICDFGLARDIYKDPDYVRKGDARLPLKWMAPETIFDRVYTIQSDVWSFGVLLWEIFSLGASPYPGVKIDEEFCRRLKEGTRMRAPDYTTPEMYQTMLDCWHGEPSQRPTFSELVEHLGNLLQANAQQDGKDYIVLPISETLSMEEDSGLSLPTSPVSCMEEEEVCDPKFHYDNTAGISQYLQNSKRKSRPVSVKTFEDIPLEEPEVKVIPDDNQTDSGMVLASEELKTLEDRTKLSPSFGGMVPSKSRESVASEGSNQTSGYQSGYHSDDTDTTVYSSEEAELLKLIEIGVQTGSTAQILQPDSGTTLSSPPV

SMILES	IC50 [1] [µM]	IC50 [2] [µM]
O=S(=O)(Nc1nccs1)c1ccc(Nc2nc(Cl)nc3cc4c(cc23)OCO4)cc1	> 100	> 100
COc1cc2nc(Cl)nc(Nc3ccc(S(=O)(=O)N(C)C)cc3)c2cc1OC	43.3	67.2
CN(C)S(=O)(=O)c1ccc(Nc2nc(Cl)nc3cc4c(cc23)OCO4)cc1	23.4	18.3
CN(C)S(=O)(=O)c1ccc(Nc2nc(Cl)nc3ccccc23)cc1	> 100	> 100
COc1cc2nc(Cl)nc(Nc3ccc(S(C)(=O)=O)cc3)c2cc1OC	> 100	61.5
CS(=O)(=O)c1ccc(Nc2nc(Cl)nc3cc4c(cc23)OCO4)cc1	> 100	> 100
COc1cc2nc(Cl)nc(Nc3ccc(S(N)(=O)=O)cc3)c2cc1OC	1.02	2.37
NS(=O)(=O)c1ccc(Nc2nc(Cl)nc3cc4c(cc23)OCO4)cc1	26.9	34.6
COc1cc2nc(Cl)nc(Nc3ccc(N(C)C)cc3)c2cc1OC	39.3	36
CN(C)c1ccc(Nc2nc(Cl)nc3cc4c(cc23)OCO4)cc1	> 100	> 100
CNS(=O)(=O)c1ccc(Nc2nc(Cl)nc3cc(OC)c(OC)cc23)cc1	0.85	1.63
COc1cc2nc(Cl)nc(Nc3ccc(O)cc3)c2cc1OC	2.1	4.3
COc1cc2nc(Cl)nc(Nc3ccc(S(=O)(=O)O)cc3)c2cc1OC	> 100	> 100
COc1cc2nc(Cl)nc(Nc3ccc(C(=O)O)cc3)c2cc1OC	> 100	> 100
COc1cc2nc(Cl)nc(Nc3ccc(C(N)=O)cc3)c2cc1OC	1.17	0.9
COc1cc2nc(Cl)nc(Nc3ccc(NC(C)=O)cc3)c2cc1OC	1.99	37.6
COc1cc2nc(Cl)nc(Nc3ccc(S(=O)(=O)Nc4nccs4)cc3)c2cc1OC	7.79	9.7
